Experimental data published in US9156845B2, “4-(substituted amino)-7H-pyrrolo[2,3-d] pyrimidines as LRRK2 inhibitors” (Pfizer Inc., priority 2012, dated 2015).

Experiments:
Experiment in all cases: ActivX kinase probe assay (human PBMC)
Assay type in all cases: binding
[1] = molecular target: CHK2 (Homo sapiens (Human), UniProt O96017); details: CHK2, read-out: percent inhibition
[2] = molecular target: DNAPK (Homo sapiens (Human), UniProt P78527); details: DNAPK, read-out: percent inhibition
[3] = molecular target: FES (Homo sapiens (Human), UniProt P07332); details: FES, read-out: percent inhibition
[4] = molecular target: FRAP (Homo sapiens (Human), UniProt P42345); details: FRAP, read-out: percent inhibition
[5] = molecular target: GPRK6 (Homo sapiens (Human), UniProt P43250); details: GPRK6, read-out: percent inhibition
[6] = molecular target: IKKb (Homo sapiens (Human), UniProt O14920); details: IKKb, read-out: percent inhibition
[7] = molecular target: ILK (Homo sapiens (Human), UniProt Q13418); details: ILK, read-out: percent inhibition
[8] = molecular target: IRAK4 (Homo sapiens (Human), UniProt Q9NWZ3); details: IRAK4, read-out: percent inhibition
[9] = molecular target: MAP2K4 (Homo sapiens (Human), UniProt P45985); details: MAP2K4, read-out: percent inhibition
[10] = molecular target: MAP3K3 (Homo sapiens (Human), UniProt Q99759); details: MAP3K3, read-out: percent inhibition
[11] = molecular target: MAP3K5 (Homo sapiens (Human), UniProt Q99683); details: MAP3K5, read-out: percent inhibition
[12] = molecular target: MARK2 (Homo sapiens (Human), UniProt Q7KZI7); details: MARK2, read-out: percent inhibition
[13] = molecular target: MLK3 (Homo sapiens (Human), UniProt Q16584); details: MLK3, read-out: percent inhibition
[14] = molecular target: MST3 (Homo sapiens (Human), UniProt Q9Y6E0); details: MST3, read-out: percent inhibition
[15] = molecular target: NDR1 (Homo sapiens (Human), UniProt Q15208); details: NDR1, read-out: percent inhibition
[16] = molecular target: NEK1 (Homo sapiens (Human), UniProt Q96PY6); details: NEK1, read-out: percent inhibition
[17] = molecular target: NEK7 (Homo sapiens (Human), UniProt Q8TDX7); details: NEK7, read-out: percent inhibition
[18] = molecular target: PAN3 (Homo sapiens (Human), UniProt Q58A45); details: PAN3, read-out: percent inhibition
[19] = molecular target: PRPK (Homo sapiens (Human), UniProt Q96S44); details: read-out: percent inhibition
Protocol: Certain of the compounds of the present invention were assessed for kinase selectivity using a commercially available ActiveX targeted kinase probe in which the tissue employed was human peripheral blood mononuclear cells (PBMC). The test compounds were provided to ActivX Biosciences, Inc., 11025 North Torrey Pines Road, Suite 120; LaJolla, Calif., USA 92037. The compounds were run in the ActivX proprietary kinase assay and results were obtained at compound test concentrations of 1 μM (columns 2, 4 and 6) and 0.1 μM (columns 3, 5 and 7). The results as percent inhibition obtained for the compounds of Examples 1, 4 and 217 are provided below in Table 3.

[20] = molecular target: RIPK3 (Homo sapiens (Human), UniProt Q9Y572); details: RIPK3, read-out: percent inhibition
[21] = molecular target: RSK1 domain1 (Homo sapiens (Human), UniProt Q15418); details: RSK1 domain1, read-out: percent inhibition
[22] = molecular target: RSK2 domain2 (Homo sapiens (Human), UniProt P51812); details: RSK2 domain2, read-out: percent inhibition
[23] = molecular target: RSKL1 domain1 (Homo sapiens (Human), UniProt Q96S38); details: RSKL1 domain1, read-out: percent inhibition
[24] = molecular target: SMG1 (Homo sapiens (Human), UniProt Q96Q15); details: SMG1, read-out: percent inhibition
[25] = molecular target: smMLCK (Homo sapiens (Human), UniProt Q15746); details: smMLCK, read-out: percent inhibition
[26] = molecular target: SRC (Homo sapiens (Human), UniProt P12931); details: SRC, read-out: percent inhibition
[27] = molecular target: SYK (Homo sapiens (Human), UniProt P43405); details: SYK, read-out: percent inhibition
[28] = test system: TAO1, TAO3
[29] = molecular target: TBK1 (Homo sapiens (Human), UniProt Q9UHD2); details: TBK1, read-out: percent inhibition
[30] = molecular target: TLK1 (Homo sapiens (Human), UniProt Q9UKI8); details: TLK1, read-out: percent inhibition
[31] = molecular target: TLK2 (Homo sapiens (Human), UniProt Q86UE8); details: TLK2, read-out: percent inhibition
[32] = test system: Wnk1, Wnk2, Wnk4

RSK2 domain2, sequence (P51812 whole entry, the tested form may be a part): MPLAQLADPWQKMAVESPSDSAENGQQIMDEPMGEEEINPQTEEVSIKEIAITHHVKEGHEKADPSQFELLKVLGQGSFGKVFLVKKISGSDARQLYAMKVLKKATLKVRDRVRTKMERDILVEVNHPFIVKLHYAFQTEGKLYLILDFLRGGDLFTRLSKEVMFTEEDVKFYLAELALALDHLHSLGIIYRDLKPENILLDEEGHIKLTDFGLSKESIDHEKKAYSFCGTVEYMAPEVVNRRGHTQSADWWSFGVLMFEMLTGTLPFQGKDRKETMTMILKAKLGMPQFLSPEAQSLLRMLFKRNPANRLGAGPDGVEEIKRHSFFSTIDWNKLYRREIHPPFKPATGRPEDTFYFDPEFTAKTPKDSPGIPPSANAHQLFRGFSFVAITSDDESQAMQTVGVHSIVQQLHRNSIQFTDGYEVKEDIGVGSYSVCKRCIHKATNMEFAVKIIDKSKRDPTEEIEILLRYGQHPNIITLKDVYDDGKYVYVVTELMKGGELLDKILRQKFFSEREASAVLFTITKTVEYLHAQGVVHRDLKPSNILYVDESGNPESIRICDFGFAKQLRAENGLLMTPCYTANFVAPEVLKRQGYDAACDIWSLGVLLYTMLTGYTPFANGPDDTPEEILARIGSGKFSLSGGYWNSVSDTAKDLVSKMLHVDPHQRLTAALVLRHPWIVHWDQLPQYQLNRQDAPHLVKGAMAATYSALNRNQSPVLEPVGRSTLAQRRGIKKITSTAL
MST3, sequence (Q9Y6E0 whole entry): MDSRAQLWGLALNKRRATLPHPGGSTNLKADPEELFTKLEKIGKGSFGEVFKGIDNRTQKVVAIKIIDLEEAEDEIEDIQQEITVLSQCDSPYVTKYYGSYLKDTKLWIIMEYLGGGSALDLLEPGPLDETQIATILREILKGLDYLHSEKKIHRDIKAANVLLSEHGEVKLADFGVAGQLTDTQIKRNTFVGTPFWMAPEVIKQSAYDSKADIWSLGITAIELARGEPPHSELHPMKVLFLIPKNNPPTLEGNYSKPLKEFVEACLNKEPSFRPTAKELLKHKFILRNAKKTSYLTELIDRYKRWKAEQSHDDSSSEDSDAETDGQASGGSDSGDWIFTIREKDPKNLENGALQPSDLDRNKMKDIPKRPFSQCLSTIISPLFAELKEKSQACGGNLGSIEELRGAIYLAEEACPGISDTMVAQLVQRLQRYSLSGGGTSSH
RSKL1 domain1, sequence (Q96S38 whole entry, the tested form may be a part): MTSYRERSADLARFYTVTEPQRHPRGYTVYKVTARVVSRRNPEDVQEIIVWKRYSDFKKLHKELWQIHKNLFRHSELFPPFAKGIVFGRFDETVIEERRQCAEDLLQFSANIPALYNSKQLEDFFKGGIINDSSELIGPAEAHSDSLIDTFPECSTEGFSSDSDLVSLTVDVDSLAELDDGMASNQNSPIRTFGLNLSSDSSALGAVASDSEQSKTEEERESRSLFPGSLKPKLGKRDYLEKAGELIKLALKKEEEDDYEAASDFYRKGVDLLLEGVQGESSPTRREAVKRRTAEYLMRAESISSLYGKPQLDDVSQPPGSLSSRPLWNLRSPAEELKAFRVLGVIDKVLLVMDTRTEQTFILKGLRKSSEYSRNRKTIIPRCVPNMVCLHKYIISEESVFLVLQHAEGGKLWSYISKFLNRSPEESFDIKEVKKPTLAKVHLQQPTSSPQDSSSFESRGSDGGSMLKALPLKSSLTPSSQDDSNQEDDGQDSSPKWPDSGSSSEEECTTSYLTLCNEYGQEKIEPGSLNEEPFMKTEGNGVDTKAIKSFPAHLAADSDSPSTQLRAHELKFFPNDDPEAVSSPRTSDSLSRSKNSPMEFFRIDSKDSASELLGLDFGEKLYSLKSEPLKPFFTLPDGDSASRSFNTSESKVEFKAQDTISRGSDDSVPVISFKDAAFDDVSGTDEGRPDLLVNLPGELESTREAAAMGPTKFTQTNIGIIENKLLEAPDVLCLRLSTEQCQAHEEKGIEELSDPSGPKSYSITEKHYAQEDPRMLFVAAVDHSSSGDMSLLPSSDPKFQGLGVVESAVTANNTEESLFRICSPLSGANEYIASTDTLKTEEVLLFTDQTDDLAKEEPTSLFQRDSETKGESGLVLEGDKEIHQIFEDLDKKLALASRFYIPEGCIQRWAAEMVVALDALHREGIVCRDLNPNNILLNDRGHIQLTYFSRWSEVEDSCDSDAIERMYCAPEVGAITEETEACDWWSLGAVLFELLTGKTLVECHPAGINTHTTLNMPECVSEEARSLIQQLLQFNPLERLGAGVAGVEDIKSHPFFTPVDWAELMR
IKKb, sequence (O14920 whole entry): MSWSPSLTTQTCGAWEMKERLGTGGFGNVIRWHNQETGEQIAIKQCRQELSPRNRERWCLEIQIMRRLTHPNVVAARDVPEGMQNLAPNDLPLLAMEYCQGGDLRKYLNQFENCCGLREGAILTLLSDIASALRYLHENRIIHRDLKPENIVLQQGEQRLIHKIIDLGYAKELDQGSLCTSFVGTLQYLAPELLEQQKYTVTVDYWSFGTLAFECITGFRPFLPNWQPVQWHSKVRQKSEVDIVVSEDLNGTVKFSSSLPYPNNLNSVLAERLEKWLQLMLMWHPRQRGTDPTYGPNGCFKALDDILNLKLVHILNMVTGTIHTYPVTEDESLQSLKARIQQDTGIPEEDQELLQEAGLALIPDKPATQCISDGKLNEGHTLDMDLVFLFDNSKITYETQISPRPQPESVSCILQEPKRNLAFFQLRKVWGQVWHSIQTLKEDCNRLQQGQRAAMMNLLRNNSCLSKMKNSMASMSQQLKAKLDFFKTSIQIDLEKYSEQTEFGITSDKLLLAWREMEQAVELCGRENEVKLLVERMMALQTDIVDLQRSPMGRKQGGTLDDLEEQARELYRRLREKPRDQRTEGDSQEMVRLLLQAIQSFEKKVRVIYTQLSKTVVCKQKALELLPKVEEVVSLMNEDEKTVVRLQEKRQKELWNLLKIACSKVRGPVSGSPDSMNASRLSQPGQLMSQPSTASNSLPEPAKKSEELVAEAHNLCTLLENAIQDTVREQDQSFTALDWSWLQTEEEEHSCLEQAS
IRAK4, sequence (Q9NWZ3 whole entry): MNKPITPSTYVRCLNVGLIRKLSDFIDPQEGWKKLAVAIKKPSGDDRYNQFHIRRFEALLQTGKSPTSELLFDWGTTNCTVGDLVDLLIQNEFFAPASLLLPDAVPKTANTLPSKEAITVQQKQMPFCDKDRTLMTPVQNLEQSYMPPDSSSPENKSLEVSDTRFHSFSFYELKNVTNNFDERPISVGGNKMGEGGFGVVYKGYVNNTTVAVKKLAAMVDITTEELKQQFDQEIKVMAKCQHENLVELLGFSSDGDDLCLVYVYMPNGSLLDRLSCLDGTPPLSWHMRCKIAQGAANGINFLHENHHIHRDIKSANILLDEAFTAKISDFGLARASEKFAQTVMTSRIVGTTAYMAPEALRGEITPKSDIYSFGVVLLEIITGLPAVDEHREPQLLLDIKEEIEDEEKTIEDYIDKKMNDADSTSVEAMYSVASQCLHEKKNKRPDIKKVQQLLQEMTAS
TLK1, sequence (Q9UKI8 whole entry): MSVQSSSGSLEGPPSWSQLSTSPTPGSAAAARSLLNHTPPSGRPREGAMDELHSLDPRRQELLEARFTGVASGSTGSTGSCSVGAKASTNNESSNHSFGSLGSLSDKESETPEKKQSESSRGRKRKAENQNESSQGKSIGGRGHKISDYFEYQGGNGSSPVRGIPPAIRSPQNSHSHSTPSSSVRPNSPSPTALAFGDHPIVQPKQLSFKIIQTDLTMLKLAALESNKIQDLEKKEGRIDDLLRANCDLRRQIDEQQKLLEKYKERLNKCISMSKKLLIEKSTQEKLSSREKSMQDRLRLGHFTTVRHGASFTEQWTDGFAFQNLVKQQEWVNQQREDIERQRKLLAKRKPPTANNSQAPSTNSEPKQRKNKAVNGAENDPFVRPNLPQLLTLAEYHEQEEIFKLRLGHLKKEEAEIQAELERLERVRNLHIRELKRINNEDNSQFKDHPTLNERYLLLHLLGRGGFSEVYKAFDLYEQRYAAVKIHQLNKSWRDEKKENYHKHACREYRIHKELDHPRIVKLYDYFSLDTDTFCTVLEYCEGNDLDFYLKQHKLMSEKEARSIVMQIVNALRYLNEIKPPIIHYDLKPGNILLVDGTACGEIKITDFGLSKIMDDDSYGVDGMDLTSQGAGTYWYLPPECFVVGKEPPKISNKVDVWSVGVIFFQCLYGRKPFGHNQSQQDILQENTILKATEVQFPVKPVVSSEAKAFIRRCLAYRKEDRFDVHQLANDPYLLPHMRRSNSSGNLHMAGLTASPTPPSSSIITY
NEK7, sequence (Q8TDX7 whole entry): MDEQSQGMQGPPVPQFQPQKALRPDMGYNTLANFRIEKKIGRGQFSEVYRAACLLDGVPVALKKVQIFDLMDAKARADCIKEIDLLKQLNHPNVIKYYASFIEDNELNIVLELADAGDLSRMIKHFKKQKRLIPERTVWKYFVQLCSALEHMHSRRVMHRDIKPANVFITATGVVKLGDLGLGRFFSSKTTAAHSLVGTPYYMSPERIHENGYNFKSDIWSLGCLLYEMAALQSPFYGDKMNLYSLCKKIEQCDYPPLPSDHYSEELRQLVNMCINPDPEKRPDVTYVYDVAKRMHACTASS
PRPK, sequence (Q96S44 whole entry): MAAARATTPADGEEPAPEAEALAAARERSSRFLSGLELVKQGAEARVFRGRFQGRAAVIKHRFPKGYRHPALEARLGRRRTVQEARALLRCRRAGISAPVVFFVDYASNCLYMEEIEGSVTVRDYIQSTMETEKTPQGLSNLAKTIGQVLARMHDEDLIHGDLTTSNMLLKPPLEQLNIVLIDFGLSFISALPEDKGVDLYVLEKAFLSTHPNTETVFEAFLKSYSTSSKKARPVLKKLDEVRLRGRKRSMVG

Cn1cc(-c2c[nH]c3ncnc(N4CCOCC4)c23)cn1 [Example 1, 5-(1-Methyl-1H-pyrazol-4-yl)-4-(morpholin-4-yl)-7H-pyrrolo[2,3-d]pyrimidine]
inhibition at 0.1 µM ([1]; 0.1 μM): 0.9% | inhibition at 1 µM ([1]; 1 μM): 17.7% | inhibition at 0.1 µM ([2]; 0.1 μM): -4.4% | inhibition at 1 µM ([2]; 1 μM): -30% | inhibition at 0.1 µM ([3]; 0.1 μM): 4.3% | inhibition at 1 µM ([3]; 1 μM): -0.9% | inhibition at 0.1 µM ([4]; 0.1 μM): -3.2% | inhibition at 1 µM ([4]; 1 μM): -1.2% | inhibition at 0.1 µM ([5]; 0.1 μM): 8.9% | inhibition at 1 µM ([5]; 1 μM): 23.7% | inhibition at 0.1 µM ([6]; 0.1 μM): 16.1% | inhibition at 1 µM ([6]; 1 μM): 10.8% | inhibition at 0.1 µM ([7]; 0.1 μM): -34% | inhibition at 1 µM ([7]; 1 μM): -56.6% | inhibition at 0.1 µM ([8]; 0.1 μM): 17.7% | inhibition at 1 µM ([8]; 1 μM): 34.7% | inhibition at 0.1 µM ([9]; 0.1 μM): 10.1% | inhibition at 1 µM ([9]; 1 μM): 9.6% | inhibition at 0.1 µM ([10]; 0.1 μM): -9.2% | inhibition at 1 µM ([10]; 1 μM): 7.2% | inhibition at 0.1 µM ([11]; 0.1 μM): 6.2% | inhibition at 1 µM ([11]; 1 μM): 2.1% | inhibition at 0.1 µM ([12]; 0.1 μM): 10.1% | inhibition at 1 µM ([12]; 1 μM): 41.6% | inhibition at 0.1 µM ([13]; 0.1 μM): 1.4% | inhibition at 1 µM ([13]; 1 μM): 4.5% | inhibition at 0.1 µM ([14]; 0.1 μM): 10.9% | inhibition at 1 µM ([14]; 1 μM): 28.4% | inhibition at 0.1 µM ([15]; 0.1 μM): -19.6% | inhibition at 1 µM ([15]; 1 μM): -7.8% | inhibition at 0.1 µM ([16]; 0.1 μM): 7% | inhibition at 1 µM ([16]; 1 μM): -10.1% | inhibition at 0.1 µM ([17]; 0.1 μM): -0.6% | inhibition at 1 µM ([17]; 1 μM): -18.8% | inhibition at 0.1 µM ([18]; 0.1 μM): 0.6% | inhibition at 1 µM ([18]; 1 μM): 0.8% | inhibition at 0.1 µM ([19]; 0.1 μM): -3.4% | inhibition at 1 µM ([19]; 1 μM): -13.8% | inhibition at 0.1 µM ([20]; 0.1 μM): 5.6% | inhibition at 1 µM ([20]; 1 μM): -4.2% | inhibition at 0.1 µM ([21]; 0.1 μM): 16.3% | inhibition at 1 µM ([21]; 1 μM): 59.8% | inhibition at 0.1 µM ([22]; 0.1 μM): 0.6% | inhibition at 1 µM ([22]; 1 μM): 9.1% | inhibition at 0.1 µM ([23]; 0.1 μM): 5.5% | inhibition at 1 µM ([23]; 1 μM): -0.2% | inhibition at 0.1 µM ([24]; 0.1 μM): -1.3% | inhibition at 1 µM ([24]; 1 μM): -19.2% | inhibition at 0.1 µM ([25]; 0.1 μM): -11.5% | inhibition at 1 µM ([25]; 1 μM): -1.9% | inhibition at 0.1 µM ([26]; 0.1 μM): 1.5% | inhibition at 1 µM ([26]; 1 μM): 9.7% | inhibition at 0.1 µM ([27]; 0.1 μM): -8.9% | inhibition at 1 µM ([27]; 1 μM): -6.1% | percent inhibition ([28]; 0.1 μM): −24% | percent inhibition ([28]; 1 μM): −14.9% | inhibition at 0.1 µM ([29]; 0.1 μM): 0.1% | inhibition at 1 µM ([29]; 1 μM): 13.4% | inhibition at 0.1 µM ([30]; 0.1 μM): 7.8% | inhibition at 1 µM ([30]; 1 μM): 2.7% | inhibition at 0.1 µM ([31]; 0.1 μM): -5.8% | inhibition at 1 µM ([31]; 1 μM): -21.1% | percent inhibition ([32]; 0.1 μM): −15% | percent inhibition ([32]; 1 μM): −13.5%
